From patent US20250051263A1, “NOVEL IONIZABLE LIPIDS AND LIPID NANOPARTICLES AND METHODS OF USING THE SAME” (Sail Biomedicines, Inc., priority 2021, published 2025)

Experiments:
[1] = TNS (pKa) assay, apparent LNP pKa; format: physicochemical; conditions: for pKa (TNS): Example 5 LNP lipid:DOPE:Plant Cholesterol:DMPE-PEG2k 35:16:46.5:2.5, FLUC/EPO 1:1 mRNA, N:P 6:1
Protocol: (protocol adapted from: A Novel Amino Lipid Series for mRNA Delivery: Improved Endosomal Escape and Sustained Pharmacology and Safety in Non-human Primates, Sabnis, Staci et al., Molecular Therapy, Volume 26, Issue 6, 1509-1519) 20 buffers (10 mM sodium phosphate, 10 mM sodium borate, 10 mM sodium citrate, and 150 mM sodium chloride, in Distilled Water) of unique pH values ranging from 3.0-12.0 were prepared using 1M sodium hydroxide and 1M hydrochloric acid. 3.25 uL of LNPs (0.04 mg/mL mRNA, in PBS) were incubated with 2 μL of TNS reagent (0.3 mM, in DMSO) and 90 μL of buffer for each pH value (described above) in a 96-well black-walled plate. Each pH condition was performed in triplicate wells. The TNS fluorescence was measured using a Biotek Cytation Plate reader at excitation/emission wavelengths of 321/445 nm. The fluorescence values were then plotted and fit using a 4-parameter sigmoid curve. From the fit, the pH value yielding the half-maximal fluorescence was calculated and reported as the apparent LNP pKa value.
For pKa measurement, a […] assay was conducted according to those described in Sabnis et al., Molecular Therapy, 26(6):1509-19), which is incorporated herein by reference in its entirety. Briefly, 20 buffers (10 mM sodium phosphate, 10 mM sodium borate, 10 mM sodium citrate, and 150 mM sodium chloride, in distilled Water) of unique pH values ranging from 3.0-12.0 were prepared using 1M sodium hydroxide and 1M hydrochloric acid. 3.25 μL of a LNP composition (0.04 mg/mL mRNA, in PBS) was incubated with 2 μL of TNS reagent (0.3 mM, in DMSO) and 90 μL of buffer for each pH value (described above) in a 96-well black-walled plate. Each pH condition was performed in triplicate wells. The TNS fluorescence was measured using a Biotek Cytation Plate reader at excitation/emission wavelengths of 321/445 nm. The fluorescence values were then plotted and fit using a 4-parameter sigmoid curve. From the fit, the pH value yielding the half-maximal fluorescence was calculated and reported as the apparent LNP pKa value.

Balb/c mice [2] = assay: In-vivo bioluminescent imaging after IV injection of Fluc mRNA LNP; conditions: IV; for Bioluminescence (IV) Liver / Bioluminescence (IV) Lung / Bioluminescence (IV) Spleen / Bioluminescence (IV) Whole Body / Spleen: Liver Ratio: Example 5 LNP (DOPE 35:16:46.5:2.5), 5 μg FLUC + 5 μg EPO; for Bioluminescence (IV) Liver / Bioluminescence (IV) Lung / Bioluminescence (IV) Spleen / Bioluminescence (IV) Whole Body / Bioluminescence Liver / Bioluminescence Lung / Bioluminescence Spleen: 4-6 hours post-dose; for Spleen: Liver Ratio: ratio of bioluminescence; for Bioluminescence Liver / Bioluminescence Lung / Bioluminescence Spleen: 5 ug Fluc+5 ug EPO mRNA
Protocol: (§1) 8-9 week old female Balb/c mice are utilized for bioluminescence-based ionizable lipid screening efforts. Mice are obtained from Jackson Laboratories (JAX Stock: 000651) and allowed to acclimate for one week prior to manipulations. Animals are placed under a heat lamp for a few minutes before introducing them to a restraining chamber. The tail is wiped with alcohol pads (Fisher Scientific) and 100 μL of a lipid nanoparticle composition descrbed above containing 10 ug total mRNA (5 ug Fluc+5 ug EPO) is injected intravenously using a 29 G insulin syringe (Covidien). Any resulting bleeding is stemmed using a sterile gauze pad (Fisher Scientific) and animals are placed back into their home cage. 4-6 hours post-dose, animals are injected with 200 μL of 15 mg/mL D-Luciferin (GoldBio) and placed in an isoflurane induction chamber set to deliver 2.5% isoflurane delivered at an oxygen flow rate of 1-2 liters per min. After 5 minutes of isoflurane exposure, mice are placed in set nose cones inside the IVIS Lumina LT imager (PerkinElmer). LivingImage software is utilized for imaging. Whole body bio-luminescence is captured at auto-exposure after which animals are removed from the IVIS and placed into a CO2 chamber for euthanasia. Cardiac puncture is performed on each animal after placing it in dorsal recumbency, and blood collection is performed using a 25 G insulin syringe (BD). Blood is collected in Lithium-Heparin coated tubes (Fisher Scientific) and immediately placed on ice. Once all blood samples are collected, tubes are spun at 2000 G for 10 minutes using a tabletop centrifuge and plasma is aliquoted into individual Eppendorf tubes (Fisher Scientific) and stored at −80 C for subsequent EPO quantification. EPO levels in plasma are determined using EPO MSD kit (Meso Scale Diagnostics).
(§2) 8-9 week old female Balb/c mice were utilized for bioluminescence-based ionizable lipid screening efforts. Mice were obtained from Jackson Laboratories (JAX Stock: 000651) and allowed to acclimate for one week prior to manipulations. Animals were placed under a heat lamp for a few minutes before introducing them to a restraining chamber. The tail was wiped with alcohol pads (Fisher Scientific) and, for each LNP composition descrbed above, 100 μL of a lipid nanoparticle composition descrbed above containing 10 μg total mRNA (5 μg Fluc+5 μg EPO, 5 μg Fluc+5 μg Cre, or 5 μg EGFP) was injected intravenously using a 29 G insulin syringe (Covidien).
(§3) 4-6 hours post-dose, animals were injected with 200 μL of 15 mg/mL D-Luciferin (GoldBio), and placed in set nose cones inside the IVIS Lumina LT imager (PerkinElmer). LivingImage software was utilized for imaging. Whole body bio-luminescence was captured at auto-exposure after which animals are removed from the IVIS and placed into a CO2 chamber for euthanasia. Cardiac puncture was performed on each animal after placing it in dorsal recumbency, and blood collection was performed using a 25 G insulin syringe (BD). Once all blood samples were collected, tubes are spun at 2000 G for 10 minutes using a tabletop centrifuge and plasma was aliquoted into individual Eppendorf tubes (Fisher Scientific) and stored at −80° C. for subsequent EPO quantification. EPO levels in plasma were determined using EPO MSD kit (Meso Scale Diagnostics).

Balb/c mice [3] = assay: EPO levels in plasma by EPO MSD kit after IV injection of EPO mRNA LNP; format: in vivo
Protocol: as §1, §2, §3

[4] = LNP size and polydispersity, Zetasizer Ultra; format: physicochemical; conditions: Example 5 LNP lipid:DOPE:Plant Cholesterol:DMPE-PEG2k 35:16:46.5:2.5, FLUC/EPO 1:1 mRNA, N:P 6:1
Description: (§4) All other compositions (i.e., compositions of MC3 (a commercially available ionizable lipid having a chemical name of (6Z,9Z,28Z,31Z)-heptatriacont-6,9,28,31-tetraene-19-yl 4-(dimethylamino)butanoate, and compositions of novel ionizable lipids 7669, 7671, 7668, 767, 7650) are composed of ionizable lipid:structural lipid:sterol:PEG-lipid (SDA lipid #:DSPC:cholesterol:14:0 PEG2000 PE) at a molar ratio of […], respectively. Lipids are solubilized in ethanol. Compositions are then handled as above, except the formulations are maintained at ionizable lipid to mRNA N:P ratio of 6:1. The lipid mix and mRNA solution are mixed at a 1:3 ratio by volume, respectively, on a NanoAssemblr Ignite (Precision Nanosystems) at a total flow rate of 9 mL/min. Resulting compositions are then loaded into Slide-A-Lyzer G2 dialysis cassettes (10 k MWCO) and dialyzed in 200 times sample volume of 1×PBS for 4 hrs at room temp with gentle stirring. The PBS is refreshed, and the compositions are further dialyzed for at least 14 hrs at 4° C. with gentle stirring. The dialyzed compositions are then collected and concentrated by centrifugation at 2000×g using Amicon Ultra centrifugation filters (100 k MWCO). Concentrated particles are characterized for size, polydispersity, and particle concentration using Zetasizer Ultra (Malvern Panalytical) and for mRNA encapsulation efficiency using Quant-iT RiboGreen RNA Assay Kit (ThermoFisher Scientific).
(§5) The lipid mix and mRNA solution were mixed at a 1:3 ratio by volume, respectively, on the NanoAssemblr Ignite (Precision Nanosystems) at a total flow rate of 9 mL/min. Resulting formulations were then loaded into Slide-A-Lyzer G2 dialysis cassettes (10 k MWCO) and dialyzed in 200 times sample volume of 1×PBS for 2 hrs at room temperature. The PBS was refreshed, and the formulations were further dialyzed for at least 14 hrs at 4° C. with gentle stirring. The dialyzed formulations were then collected and concentrated by centrifugation at 3000×g using Amicon Ultra centrifugation filters (100 k MWCO). The concentrated formulations were characterized for size, polydispersity, and particle concentration using Zetasizer Ultra (Malvern Panalytical) and for mRNA encapsulation efficiency using Quant-iT RiboGreen RNA Assay Kit (ThermoFisher Scientific).
(§6) For each LNP composition, the lipid mix and mRNA solution were mixed at a 1:3 ratio by volume, respectively, on a NanoAssemblr Ignite (Precision Nanosystems) at a total flow rate of 9 mL/min. The resulting compositions were then loaded into Slide-A-Lyzer G2 dialysis cassettes (10 k MWCO) and dialyzed in 200 times sample volume of 1×PBS for 2 hours at room temperature with gentle stirring. The PBS was refreshed, and the compositions were further dialyzed for at least 14 hours at 4° C. with gentle stirring. The dialyzed compositions were then collected and concentrated by centrifugation at 3000×g using Amicon Ultra centrifugation filters (100 k MWCO). The concentrated particles were characterized for size, polydispersity, and particle concentration using Zetasizer Ultra (Malvern Panalytical) and for mRNA encapsulation efficiency using Quant-iT RiboGreen RNA Assay Kit (ThermoFisher Scientific).

[5] = mRNA encapsulation efficiency, Quant-iT RiboGreen RNA Assay; format: physicochemical; conditions: Example 5 LNP lipid:DOPE:Plant Cholesterol:DMPE-PEG2k 35:16:46.5:2.5, FLUC/EPO 1:1 mRNA, N:P 6:1
Description: as §4, §5, §6

[6] = LNP lipid:DOPE:Plant Chol.:DMPE-PEG2k 35:16:46.5:2.5 (Table 1)
[7] = LNP lipid:DSPC:Plant Chol.:DMPE-PEG2k 50:10:38.5:1.5
[8] = Example 5 LNP (DOPE 35:16:46.5:2.5), 5 μg FLUC + 5 μg EPO

| Compound | pKa (TNS) [1] | pKa ([1]; LNP ionizable lipid:DOPE:Plant Chol.:DMPE-PEG2k 35:16:46.5:2.5 (Table 1)) | pKa ([1]; LNP ionizable lipid:DSPC:Plant Chol.:DMPE-PEG2k 50:10:38.5:1.5) | Bioluminescence (IV) Liver (Balb/c mice [2]) | Bioluminescence (IV) Lung (Balb/c mice [2]) | Bioluminescence (IV) Spleen (Balb/c mice [2]) | Bioluminescence (IV) Whole Body (Balb/c mice [2]) | Spleen: Liver Ratio (Balb/c mice [2]) | Bioluminescence Liver (Balb/c mice [2]; [6]) | Bioluminescence Lung (Balb/c mice [2]; [6]) | Bioluminescence Spleen (Balb/c mice [2]; [6]) | Bioluminescence Liver (Balb/c mice [2]; [7]) | Bioluminescence Lung (Balb/c mice [2]; [7]) | Bioluminescence Spleen (Balb/c mice [2]; [7]) | hEPO (Balb/c mice [3]; [8]) | hEPO (Balb/c mice [3]; LNP lipid:DOPE:Plant Chol.:DMPE-PEG2k 35:16:46.5:2.5 (Table 1), 5 ug Fluc+5 ug EPO mRNA) | hEPO (Balb/c mice [3]; LNP lipid:DSPC:Plant Chol.:DMPE-PEG2k 50:10:38.5:1.5, 5 ug Fluc+5 ug EPO mRNA) | PDI [4] | Size (nm) [4] [nm] | % EE [5] [%] |
| --- | --- | --- | --- | --- | --- | --- | --- | --- | --- | --- | --- | --- | --- | --- | --- | --- | --- | --- | --- | --- |
| CCCCCCCCCCCOC(=O)CCCCCN(CCCCCCCC(=O)OC(CCCCCCCC)CCCCCCCC)CCNC(=O)CCC(=O)NCCN(CCCCCCCC(=O)OC(CCCCCCCC)CCCCCCCC)CCCCCC(=O)OCCCCCCCCCCC [Compound 2221, 1-octylnonyl 8-[2-[[4-[2-[[8-(1-octylnonoxy)-8-oxo-octyl]-(6-oxo-6-undecoxy-hexyl)amino]ethylamino]-4-oxo-butanoyl]amino]ethyl-(6-oxo-6-undecoxy-hexyl)amino]octanoate] | 6.36 | 6.36 | 6.29 | 3.0E+06 | 1.9E+03 | 2.7E+05 | 2.2E+07 | 0.082 | 3.05E+06 | 1.88E+03 | 2.68E+05 | 2.94E+06 | 5.09E+03 | 1.23E+06 | 4.7E+05 | 4.71E+05 | 4.46E+05 | – | – | – |
| CCCCCCCCCCCOC(=O)CCCCCN(CCCCCCCC(=O)OC(CCCCCCCC)CCCCCCCC)CCNC(=O)CCCC(=O)NCCN(CCCCCCCC(=O)OC(CCCCCCCC)CCCCCCCC)CCCCCC(=O)OCCCCCCCCCCC [Compound 2273, 1-octylnonyl 8-[2-[[5-[2-[[8-(1-octylnonoxy)-8-oxo-octyl]-(6-oxo-6-undecoxy-hexyl)amino]ethylamino]-5-oxo-pentanoyl]amino]ethyl-(6-oxo-6-undecoxyhexyl)amino]octanoate] | 6.57 | – | – | 7.6E+06 | 1.0E+04 | 5.7E+05 | 4.2E+07 | 0.080 | – | – | – | – | – | – | 8.5E+05 | – | – | – | – | – |
| CCCCCCCCC(CCCCCCCC)OC(=O)CCCCCCCN(CCCCCCCOC(=O)C(CCCCCCCC)CCCCCCCC)CCNC(=O)CCC(=O)NCCN(CCCCCCCOC(=O)C(CCCCCCCC)CCCCCCCC)CCCCCCCC(=O)OC(CCCCCCCC)CCCCCCCC [Compound 2323, 7-[2-[[4-[2-[7-(2-octyldecanoyloxy)heptyl-[8-(1-octylnonoxy)-8-oxo-octyl]amino]ethylamino]-4-oxo-butanoyl]amino]ethyl-[8-(1-octylnonoxy)-8-oxo-octyl]amino]heptyl 2-octyldecanoate] | – | – | – | 3.2E+07 | 7.7E+03 | 8.7E+05 | 2.1E+08 | 0.027 | – | – | – | – | – | – | 3.1E+06 | – | – | 0.14 | 91.0 | 90.7 |
